This note sets out measurements from US11453660B2, “Androgen receptor and glucocorticoid receptor modulators” (ONCOSTELLAE, S.L., priority 2017, dated 2022).

Structures are written as SMILES.

Experiment [1] has as its target T1, Human Glucocorticoid Receptor (Homo sapiens, UniProt P04150).
T1 construct: endogenous in cells; host or cells: cytosol from IM-9 cell line
T1 sequence (P04150 1-777): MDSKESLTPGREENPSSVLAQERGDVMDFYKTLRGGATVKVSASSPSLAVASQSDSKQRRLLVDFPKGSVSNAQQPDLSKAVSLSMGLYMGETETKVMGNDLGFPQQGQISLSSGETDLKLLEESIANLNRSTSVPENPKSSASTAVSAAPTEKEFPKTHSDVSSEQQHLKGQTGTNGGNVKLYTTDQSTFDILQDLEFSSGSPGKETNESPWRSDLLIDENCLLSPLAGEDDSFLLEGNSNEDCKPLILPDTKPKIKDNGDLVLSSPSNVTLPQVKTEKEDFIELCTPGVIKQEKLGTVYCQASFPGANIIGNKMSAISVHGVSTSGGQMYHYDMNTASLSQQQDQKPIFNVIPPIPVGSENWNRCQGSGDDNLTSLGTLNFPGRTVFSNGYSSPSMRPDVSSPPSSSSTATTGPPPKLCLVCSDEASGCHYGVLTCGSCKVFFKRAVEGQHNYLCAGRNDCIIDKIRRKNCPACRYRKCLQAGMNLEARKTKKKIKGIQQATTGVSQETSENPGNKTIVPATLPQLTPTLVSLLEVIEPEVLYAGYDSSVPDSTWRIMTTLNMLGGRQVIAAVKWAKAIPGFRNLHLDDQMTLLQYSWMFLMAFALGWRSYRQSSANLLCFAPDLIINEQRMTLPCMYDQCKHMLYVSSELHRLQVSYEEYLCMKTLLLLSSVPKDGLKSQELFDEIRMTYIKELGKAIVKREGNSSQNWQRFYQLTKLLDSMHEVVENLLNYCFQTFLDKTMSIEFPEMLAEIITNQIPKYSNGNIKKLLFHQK
Kind of experiment: Competition Binding in IM-9 Human Glucocorticoid Receptor (GR IM-9). The settings on record: cytosol from IM-9 cell line, 1.5 nM [3H]-Dexamethasone, 4° C. for 6 hours. Summed up:
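Radioligand competition using 100 μg IM-9 cell cytosol and 1.5 nM [3H]-dexamethasone, incubated 6 h at 4° C in TES/molybdate buffer, pH 7.4. Filtration on PEI-treated GF/B filters, scintillation counting; nonspecific binding defined with 10 μM triamcinolone.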

Experiment [2] addresses T2, AR-Receptor (Homo sapiens, UniProt P10275).
T2 sequence (P10275 1-920 Q868H): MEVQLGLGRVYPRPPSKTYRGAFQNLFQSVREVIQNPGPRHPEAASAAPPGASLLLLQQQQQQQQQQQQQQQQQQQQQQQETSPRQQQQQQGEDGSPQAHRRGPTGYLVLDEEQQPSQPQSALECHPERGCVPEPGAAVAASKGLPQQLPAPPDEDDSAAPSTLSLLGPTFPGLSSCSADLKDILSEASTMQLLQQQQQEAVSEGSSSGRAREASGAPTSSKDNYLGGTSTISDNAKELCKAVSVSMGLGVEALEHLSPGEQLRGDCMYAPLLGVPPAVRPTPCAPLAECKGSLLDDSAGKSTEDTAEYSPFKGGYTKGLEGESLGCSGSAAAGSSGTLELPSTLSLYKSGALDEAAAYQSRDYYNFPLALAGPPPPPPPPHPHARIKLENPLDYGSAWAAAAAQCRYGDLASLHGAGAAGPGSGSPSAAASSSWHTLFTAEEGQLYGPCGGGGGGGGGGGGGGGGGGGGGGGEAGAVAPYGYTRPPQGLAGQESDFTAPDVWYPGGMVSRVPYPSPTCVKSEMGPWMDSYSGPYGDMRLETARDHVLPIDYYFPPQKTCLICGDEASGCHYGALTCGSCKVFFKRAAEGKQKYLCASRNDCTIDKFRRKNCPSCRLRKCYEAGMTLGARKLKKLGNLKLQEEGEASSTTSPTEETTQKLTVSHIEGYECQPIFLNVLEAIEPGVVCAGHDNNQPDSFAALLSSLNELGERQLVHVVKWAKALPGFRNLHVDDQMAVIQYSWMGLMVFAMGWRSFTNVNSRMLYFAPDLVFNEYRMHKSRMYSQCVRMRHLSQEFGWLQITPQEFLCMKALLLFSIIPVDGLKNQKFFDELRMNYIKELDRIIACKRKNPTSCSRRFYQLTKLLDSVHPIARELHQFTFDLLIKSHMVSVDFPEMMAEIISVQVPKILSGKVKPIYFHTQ
Kind of experiment: Functional Assay AR-Receptor (MDA-MB-453 cells, luciferase). Particulars: antagonist effect in the presence of DHT 1 nM, 24 h, luciferase luminescence, read-out: AR antag KB. It is filed as cell-based. On the procedure:
Functional Assay AR-Receptor
MDA-MB-453 cells were cultured in DMEM (ATCC, ref 30-2002), 10% FBS, 1% penicillin, 1% streptomycin, 75 μg/ml gentamycin.
The day before performing assay, the cells were trypsinized and seeded in a 384-well plate (Greiner, ref 781098) (8000 cells/well) in 50 μl of complete culture medium. Cells were stores at 37° C. in a 5% CO2 atmosphere overnight.
The medium was replaced by 50 μl complete growth medium with 0.1% FBS. Compounds were dispensed with Echo 550 (Labcyte) and incubated for 24 h at 37° C. in a 5% CO2 atmosphere. Antagonist effect was measured in the presence of DHT 1 nM.
After incubation, assay medium removed and 20 μl of 1× Promega lysis buffer were added to each well. The plate was incubated 15 minutes at RT and quick-frozen to −80° C. and the thaw to room temperature. 50 μl of luciferase substrate (E4550, Promega) were added to each well and luminescence (integration time 1000 msec) was read in an EnSpire multilabel reader (Perkin Elmer).

Usually IC50 stands for the concentration that inhibits the measured activity by half. Lower therefore signals greater potency in that assay. For orientation: Kb means the affinity of an antagonist, worked out from how it opposes an agonist. `CC(=O)C1=C(C)NC(N)=C(C(=O)OC2CCCC2)C1c1csc2c(Br)cccc12` (stereo not drawn) [Example D6, Cyclopentyl 5-acetyl-2-amino-4-(7-bromobenzo[b]thiophen-3-yl)-6-methyl-1,4-dihydropyridine-3-carboxylate] came in with an IC50 in experiment [1] of 100 to 1000 nM. For the same molecule, in experiment [2], the Kb is no less than 1000 nM.

Turning to `COC(=O)C1=C(C)NC(N)=C(C(=O)OC)C1c1csc2c(C#N)cccc12` (stereo not drawn) [Example D7, Dimethyl 2-amino-4-(7-cyanobenzo[b]thiophen-3-yl)-6-methyl-1,4-dihydropyridine-3,5-dicarboxylate], in experiment [1], the IC50 is less than 100 nM. Besides, the Kb in experiment [2] is no less than 1000 nM.

As to `CC(=O)C1=C(C)NC(C)=C(C(=O)OCc2ccccc2-c2ccncc2)C1c1csc2ncccc12` (stereo not drawn) [Example L5, 2-(pyridin-4-yl)benzyl 5-acetyl-2,6-dimethyl-4-(thieno[2,3-b]pyridin-3-yl)-1,4-dihydropyridine-3-carboxylate], in experiment [1], the concentration for half-maximal inhibition (IC50) is less than 100 nM. Also, the Kb in experiment [2] was no less than 1000 nM.

The molecule `CC(=O)C1=C(C)NC(C2CC2)=C(C(=O)OCc2ccc(C#N)cc2)C1c1csc2ncccc12` (stereo not drawn) [Example J43, 4-cyanobenzyl 5-acetyl-2-cyclopropyl-6-methyl-4-(thieno[2,3-b]pyridin-3-yl)-1,4-dihydropyridine-3-carboxylate] had a half-maximal inhibitory concentration (IC50) in experiment [1] of less than 100 nM. For the same molecule, the Kb in experiment [2] was 100 to 1000 nM.

Consider `CC(=O)C1=C(C)NC(C)=C(C(=O)OCc2ccc(Cl)nc2)C1c1csc2ncccc12` (stereo not drawn) [Example C74, (6-chloropyridin-3-yl)methyl 5-acetyl-2,6-dimethyl-4-(thieno[2,3-b]pyridin-3-yl)-1,4-dihydropyridine-3-carboxylate], for which the half-inhibitory concentration (IC50) in experiment [1] fell in the range of 100 to 1000 nM. The antagonist equilibrium constant (Kb) in experiment [2] is no less than 1000 nM.

For the molecule `CC(=O)C1=C(C)NC(C)=C(C(=O)OCc2cccc(CN3CCN(C)CC3)c2)C1c1csc2c(Br)cccc12` (stereo not drawn) [Example C108, 3-((4-methylpiperazin-1-yl)methyl)benzyl 5-acetyl-4-(7-bromobenzo[b]thiophen-3-yl)-2,6-dimethyl-1,4-dihydropyridine-3-carboxylate], in experiment [1], the IC50 is less than 100 nM. Further, the antagonist equilibrium constant (Kb) in experiment [2] was no less than 1000 nM.

`CC(=O)C1=C(C)NC(C)=C(C(=O)N(C)Cc2ccccc2)C1c1csc2ncccc12` (stereo not drawn) [Example C80, 5-Acetyl-N-benzyl-N,2,6-trimethyl-4-(thieno[2,3-b]pyridin-3-yl)-1,4-dihydropyridine-3-carboxamide] registered a 50% inhibitory concentration (IC50) in experiment [1] of no less than 1000 nM. Moreover, in experiment [2], the Kb is no less than 1000 nM.

`CC(=O)C1=C(C)NC(C)=C(C(=O)OCc2ccncc2)C1c1csc2ncccc12` (stereo not drawn) [Example C64, Pyridin-4-ylmethyl 5-acetyl-2,6-dimethyl-4-(thieno[2,3-b]pyridin-3-yl)-1,4dihydropyridine-3-carboxylate] came in with an IC50 in experiment [1] of no less than 1000 nM. The Kb in experiment [2] was in the range of 100 to 1000 nM.

`CC(=O)C1=C(C)NC(C)=C(C(=O)OC2CCC(F)(F)CC2)C1c1csc2ncccc12` (stereo not drawn) [Example C79, 4,4-difluorocyclohexyl 5-acetyl-2,6-dimethyl-4-(thieno[2,3-b]pyridin-3-yl)-1,4-dihydropyridine-3-carboxylate] registered an IC50 in experiment [1] of less than 100 nM. The Kb in experiment [2] was no less than 1000 nM.

For the molecule `CC(=O)C1=C(C)NC(C)=C(C(=O)OCc2cncc(-c3ccncc3)c2)C1c1csc2ncccc12` (stereo not drawn) [Example L7, [3,4′-bipyridin]-5-ylmethyl 5-acetyl-2,6-dimethyl-4-(thieno[2,3-b]pyridin-3-yl)-1,4-dihydropyridine-3-carboxylate], the IC50 in experiment [1] fell in the range of 100 to 1000 nM. Moreover, the Kb in experiment [2] is no less than 1000 nM.

For `CC(=O)C1=C(C)NC(C)=C(C(=O)OCc2cccnc2)C1c1csc2ccc(F)cc12` (stereo not drawn) [Example C57, Pyridin-3-ylmethyl 5-acetyl-4-(5-fluorobenzo[b]thiophen-3-yl)-2,6-dimethyl-1,4-dihydropyridine-3-carboxylate], the Kb in experiment [2] lay within 100 to 1000 nM.

For the molecule `CC(=O)C1=C(C)NC(C)=C(C(=O)OCc2cccc(N3CCOCC3)c2)C1c1csc2ncccc12` (stereo not drawn) [Example C75, 3-morpholinobenzyl 5-acetyl-2,6-dimethyl-4-(thieno[2,3-b]pyridin-3-yl)-1,4-dihydropyridine-3-carboxylate], the IC50 in experiment [1] fell in the range of 100 to 1000 nM. Also, in experiment [2], the antagonist dissociation constant (Kb) is no less than 1000 nM.

With `CC(=O)C1=C(C)NC(C2CC2)=C(C(=O)OCc2ccncc2)C1c1csc2ccc(Cl)cc12` (stereo not drawn) [Example J34, Pyridin-4-ylmethyl 5-acetyl-4-(5-chlorobenzo[b]thiophen-3-yl)-2-cyclopropyl-6-methyl-1,4-dihydropyridine-3-carboxylate], in experiment [2], the Kb fell in the range of 100 to 1000 nM.

In experiment [1], `CC(=O)C1=C(C)NC(C2CC2)=C(C(=O)OCC2CC2)C1c1csc2cc(C#N)ccc12` (stereo not drawn) [Example C122, Cyclopropylmethyl 5-acetyl-4-(6-cyanobenzo[b]thiophen-3-yl)-2-cyclopropyl-6-methyl-1,4-dihydropyridine-3-carboxylate] had a concentration for half-maximal inhibition (IC50) of 100 to 1000 nM. Also, the Kb in experiment [2] was less than 100 nM.

The molecule `CC(=O)C1=C(C)NC(C)=C(C(=O)OCc2cccnc2)C1c1csc2ncccc12` (stereo not drawn) [Example C61, Pyridin-3-ylmethyl 5-acetyl-2,6-dimethyl-4-(thieno[2,3-b]pyridin-3-yl)-1,4-dihydropyridine-3-carboxylate] registered an IC50 in experiment [1] of no less than 1000 nM. Also, in experiment [2], the Kb lay within 100 to 1000 nM.

Regarding `COC(=O)C1=C(C2CC2)NC(C2CC2)=C(C#N)C1c1csc2c(C#N)cccc12` (stereo not drawn) [Example C107, Methyl 5-cyano-4-(7-cyanobenzo[b]thiophen-3-yl)-2,6-dicyclopropyl-1,4-dihydropyridine-3-carboxylate], in experiment [1], the IC50 is less than 100 nM. The antagonist dissociation constant (Kb) in experiment [2] is no less than 1000 nM.
